Reference: US9532949B2, “Intraperitoneally-administered nanocarriers that release their therapeutic load based on the inflammatory environment of cancers” (STC.UNM, priority 2011, dated 2017)

Assays:
[1] = tested on: OVCA cells
Text: For all above experiments, DOX will be added directly to cells as a positive control after determining the optimal concentration of the drug to be used to cause at least 70% cytotoxicity. […] Negative controls include (1) absence of ROS either by not activating macrophages; and (2) addition of nanocarriers devoid of DOX but with generation of ROS. Data will be collected in triplicates and comparisons will be done using a non-parametric Welch's two sample t-test where any p-value below 0.05 will be considered statistically significant.
However, for the nanocarriers, 72 hr may allow internalization of the nanocarriers and release of DOX regardless of presence of ROS.

[2] = tested on: macrophages; assay: Generation of ROS by activated macrophages (CellROX, flow cytometry); assay type: cell-based; details: PMA 1 μM for 30 minutes, 5 μM CellROX
Procedure: H36.12j and RAW264.7 macrophages cell line was obtained from American Type Cell Culture (ATCC, Manassas, Va.). H36.12j cells were grown in Delbecco's Modified Eagles Medium (ATTC, Manassas, Va.) supplemented with 10% (v/v) Heat-inactivated iron bovine calf serum. Propagation was at 37° C. in 5% carbon dioxide. RAW264.7 cells were grown in Delbecco's Modified Eagles Medium (ATTC, Manassas, Va.) supplemented with 10% (v/v) fetal bovine serum. Propagation was at 37° C. in 10% carbon dioxide.
Cells (0.2×10^6 in 500 uL media) were pipetted into each well of 24-well plate. Cells were stimulated with phorbol-12-myristate-13-acetate (PMA), (Sigma—Saint Louis, Mo.) at a final concentration of 1 μM for 30 minutes, followed by an incubation with 5 μM CellROX (Invitrogen) for 30 minutes to detect ROS. Fluorescence was then determined by flow cytometry.

[3] = Photochemical ozone production catalyzed by amino acids in cell-free system (indigo carmine absorbance at 610 nm); details: for Ozone production: 1 mM amino acid or 5 mg/mL BSA, 10 μM 6-biopterin, UVA irradiation, 30 μM indigo carmine
Procedure: FIG. 4. Ozone production catalyzed by amino acids in cell-free system in presence of 10 μM 6-biopterin and with UVA irradiation. Tubes also contained 30 μM indigo carmine which got converted by ozone to isatin sulfonic acid as detected by a decrease in absorbance at 610 nm. 1 mM of each amino acid and 5 mg/mL BSA in phosphate buffer were tested. Error bars represent standard deviation for three replicates.
FIG. 5. Both UVA and 6BP are required to generate ozone by tryptophan. 1 mM Trp was tested. Error bars represent standard deviation for three replicates.
FIG. 6. Dose response curve for generation of ozone by increasing concentrations of Trp. Tested concentrations were 0, 10, 20, 40, 80 & 160, 500, 1000 μM tryptophan. Higher concentrations 500 μM and 1 mM Trp are not shown as they gave similar results to 160 μM. Error bars represent standard deviation for three replicates.
We successfully generated ozone (a molecule with the chemical signature of ozone) in a cell-free system by employing a photochemical source i.e. by adding a photosensitizer and exposing the tube contents to UVA irradiation. Our findings are summarized in this section. Four amino acids (tryptophan, methionine, cysteine, and histidine), but not other amino acids were reported to have the same catalytic activity as antibodies needed for water oxidation to produce ozone along with increasing bactericidal activity of neutrophils by employing a photochemical source. For our preliminary studies we used amino acids as the simplest mechanism to generate ozone. The photosensitizer we used is 6-biopterin (Sigma-Aldrich, St Louis, Mo.), and the UVA irradiation (315-400 nm) was provided by an ozone-free 1000W Xenon arc lamp as a solar simulator with blocking UVB radiation by appropriate filters (Oriel Instruments, Stratford, Conn.). The output of UVA radiation was confirmed and was measured by a UV meter (Model 3D, Solar Light, Glenside, Pa.) to be 6 mW/cm^2; we exposed the samples for 4 minutes. Ozone was detected through its conversion of indigo carmine (a blue dye with absorbance maximum at 610 nm) to isatin sulfonic acid (colorless) as we monitored this conversion by measuring absorbance at 610 nm as previously described.
The platform we plan to use employs supported lipid bilayers (SLBs) on porous silica. We will test the disruption of SLBs by ozone employing the above described system to generate ozone photochemically by Trp. […] Disruption of the SLB by TX 100 caused release of the encapsulated fluorescein (14 fold increase in fluorescence by TX100 vs. untreated spheres).

[4] = Disruption of supported lipid bilayer on porous silica spheres by Triton X-100, release of fluorescein; details: 5% (w/v) Triton X-100; 3 μm porous silica spheres, egg PC bilayer, supernatant fluorescence
Procedure: FIG. 7. Disruption of lipid bilayer by Triton X-100. 3 μm silica spheres with 50 Å nominal pore size were incubated with 5 mM fluorescein then coated with a lipid bilayer made of egg phosphatidyl choline. Part of spheres was left with no treatment, and part was treated with Triton X-100 (TX 100) at a final concentration of 5% (w/v). Fluorescence of the supernatant after sedimenting the spheres was examined to check for release of fluorescein.
The platform we plan to use employs supported lipid bilayers (SLBs) on porous silica. We will test the disruption of SLBs by ozone employing the above described system to generate ozone photochemically by Trp. For detecting disruption of the SLB we tested the proof-of-concept by adding Triton X-100 (TX 100) to spheres encapsulating fluorescein within 3 microns porous silica (Macherey-Nagel, Germany) followed by forming the SLB as previously described (FIG. 7). Disruption of the SLB by TX 100 caused release of the encapsulated fluorescein (14 fold increase in fluorescence by TX100 vs. untreated spheres).

## COc1cccc2c1C(=O)c1c(O)c3c(c(O)c1C2=O)C[C@@](O)(C(=O)CO)C[C@@H]3O[C@H]1C[C@H](N)[C@H](O)[C@H](C)O1 [DOX, doxorubicin]
[1]
  Cytotoxicity (cell death): 96%
[1]; 1 μM DOX, 24 hr incubation
  Cytotoxicity: ~45%

## CCCCCCCCCCCCCC(=O)O[C@@H]1[C@@H](C)[C@@]2(O)[C@@H](C=C(CO)C[C@]3(O)C(=O)C(C)=C[C@@H]23)[C@@H]2C(C)(C)[C@]12OC(C)=O [PMA, phorbol-12-myristate-13-acetate]
[2]
  Generation of ROS by macrophages: ROS was generated

## N[C@@H](Cc1c[nH]c2ccccc12)C(=O)O [tryptophan]
[3]; 0-1000 μM tryptophan
  Conversion of singlet oxygen to ozone, dose response: dose-dependent manner
[3]
  Ozone production: photochemically generated ozone
[3]; listed as Tryptophan
  Ozone production: highest level of ozone
[3]; without 6-biopterin and UVA exposure, 1 mM Trp
  Water oxidation (ozone generation) by tryptophan alone: not capable of water oxidation

## Triton X-100 [TX 100]
[4]
  Increase in fluorescence (release of encapsulated fluorescein) vs. untreated spheres: 14 fold
